Conditions: in NMP

CC(C)Oc1ccc2c(=O)c(-c3ccccc3)coc2c1
Conditions | solubility (mole fraction)
278.15 K | 0.0605
283.15 K | 0.0683
288.15 K | 0.078
293.15 K | 0.0892
298.15 K | 0.101
303.15 K | 0.113
308.15 K | 0.129
313.15 K | 0.146
318.15 K | 0.165
323.15 K | 0.186
